Results on twelve compounds are retold here after patent US10202350B2, “MCT4 inhibitors for treating disease” (Vettore, LLC, priority 2015, dated 2019).

Data set [1] deals with T1, MCT4 (Homo sapiens (Human), UniProt O15427). Put plainly: MCT4-mediated lactate transport in MDA-MB-231 breast cancer cells. The class given is cell-based. The settings on record: MDA-MB-231 cells, native MCT4; 50 mM L-lactate. As for the experimental part:
10 μL of a 30 mM DMSO stock of BCECF-AM ester (Life Technologies) is added and the cells are incubated at 37° C. for 5 min. The cells are pelleted (300 g, 5 min), washed once with 1 mL Tyrode's Solution, pH 7.4, re-pelleted (300 g, 5 min), and resuspended in 1 mL Tyrode's Solution, pH 7.4.
2.5 μL BCECF-loaded cells, along with either 10 μL DMSO or 100×compound in DMSO, are added to 937.5 μL of Tyrode's Solution in a quartz 1.0 mL cuvette (PerkinElmer, B0631116). […] After establishing baseline BCECF fluorescence (around 10-20 s), 50 μL of 1 M sodium L-lactate (Sigma-Aldrich) is added to the cuvette (final concentration: 50 mM) and rapidly mixed. The time-dependent decrease in BCECF fluorescence (490/440 ratio) may be fit to an exponential decay curve (Prism GraphPad) to determine the rate of lactate transport.
Preparation of BCECF-loaded cells and lactate transport activity may be determined as described for Assay 1.

Data set [2] can be described thus: Metabolic stability in human liver microsomes. The class given is in vitro ADME. The settings on record: human liver microsomes 0.5 mg/mL, 2 μM compound; remaining percentage of parent at 60 min. How it is done:
(§1) Metabolic Stability Assays The following are assays that may be used to evaluate the metabolic stability of compounds of Formula (I) in human or mouse microsomes. 1. […] Two separated experiments were performed as follows. a) With NADPH: 10 μL of 20 mg/mL liver microsomes and 40 μL of 10 mM NADPH were added to the incubations. […] The final concentration of microsomes was 0.5 mg/mL. 3. The reaction was started with the addition of 4 μL of 200 μM control compound or test compound solutions. Verapamil was used as positive control in this study. The final concentration of test compound or control compound was 2 μM. 4. Aliquots of 50 μL were taken from the reaction solution at 0, 15, 30, 45 and 60 min. […] Samples were centrifuged at 3, 220 g for 40 minutes. Aliquot of 90 μL of the supernatant was mixed with 90 μL of ultra-pure H2O and then used for LC-MS/MS analysis. 5. Data analysis. All calculations were carried out using Microsoft Excel. Peak areas were determined from extracted ion chromatograms. The slope value, k, was determined by linear regression of the natural logarithm of the remaining percentage of the parent drug vs. incubation time curve. The in vitro half-life (in vitro t½) was determined from the slope value: in vitro t1/2=−(0.693)/k.

Data set [3] can be described thus: Metabolic stability in mouse liver microsomes. The class given is in vitro ADME. The note with it: mouse liver microsomes 0.5 mg/mL, 2 μM compound; remaining percentage of parent at 60 min. As for the experimental part:
as §1

Data set [4] has as its target T1, MCT4. The data set is described as follows: Lactate transport in MCT4-expressing MDA-MB-453 breast cancer cells (BCECF). The class given is cell-based. The note with it: MDA-MB-453 cells stably expressing MCT4; 50 mM L-lactate. As for the experimental part:
Assay 1: Lactate Transport in MCT4-Expressing MDA-MB-453 Breast Cancer Cells. […] The following is an exemplary procedure for assaying MCT4 activity of the compounds of Formula (I). Preparing BCECF-Loaded Cells: […] The cells are pelleted (300 g, 5 min), washed once with 1 mL Tyrode's Solution, pH 7.4, re-pelleted (300 g, 5 min), and resuspended in 1 mL Tyrode's Solution, pH 7.4. Lactate Transport Assay: […] Fluorescence measurements are performed on a PerkinElmer LS55 fluorescence spectrometer with dual excitation wavelengths achieved using a filter wheel (FL Winlab program: Fast Filter; […] Emission 535). After establishing baseline BCECF fluorescence (around 10-20 s), 50 μL of 1 M sodium L-lactate (Sigma-Aldrich) is added to the cuvette (final concentration: 50 mM) and rapidly mixed.

The target of a further data set is MCT1 (Homo sapiens (Human), UniProt P53985). Put plainly: MCT1-mediated lactate transport in BT20 breast cancer cells. The settings on record: native MCT1, 10 mM L-lactate. In kind it is cell-based. The method, boiled down: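 BT20 cells loaded with BCECF-AM (5 min, 37 °C) were placed in Tyrode's Solution, pH 7.4, with compound or DMSO in a cuvette. After baseline, 10 mM L-lactate was added, and the transport rate came from an exponential fit to the fall in BCECF fluorescence (490/440 ratio).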

Data set [5] deals with T1, MCT4. Put plainly: MCT4-mediated lactate transport in NCI-H358 lung adenocarcinoma cells. The class given is cell-based. The settings on record: native MCT4, 50 mM L-lactate. As for the experimental part:
Cells (˜7×10^6) are trypsinized (0.05% Trypsin-EDTA), pelleted (300 g, 5 min), and resuspended in 1 mL Tyrode's Solution, pH 7.4 (119 mM NaCl, 5 mM KCl, 25 mM HEPES, pH 7.4, 2 mM CaCl2, 2 mM MgCl2, 6 g/L glucose). 10 μL of a 30 mM DMSO stock of BCECF-AM ester (Life Technologies) is added and the cells are incubated at 37° C. for 5 min. The cells are pelleted (300 g, 5 min), washed once with 1 mL Tyrode's Solution, pH 7.4, re-pelleted (300 g, 5 min), and resuspended in 1 mL Tyrode's Solution, pH 7.4.
2.5 μL BCECF-loaded cells, along with either 10 μL DMSO or 100×compound in DMSO, are added to 937.5 μL of Tyrode's Solution in a quartz 1.0 mL cuvette (PerkinElmer, B0631116). Fluorescence measurements are performed on a PerkinElmer LS55 fluorescence spectrometer with dual excitation wavelengths achieved using a filter wheel (FL Winlab program: Fast Filter; Excitation 490/440; Emission 535). After establishing baseline BCECF fluorescence (around 10-20 s), 50 μL of 1 M sodium L-lactate (Sigma-Aldrich) is added to the cuvette (final concentration: 50 mM) and rapidly mixed. The time-dependent decrease in BCECF fluorescence (490/440 ratio) may be fit to an exponential decay curve (Prism GraphPad) to determine the rate of lactate transport.
Assay 2: MCT4-Mediated Lactate Transport in NCI-H358 Lung Adenocarcinoma Cells.
NCI-H358 lung adenocarcinoma cells may be used to measure MCT4 activity in cells with high native levels of MCT4 and low levels of MCT1 and are known to those with skill in the art. Preparation of BCECF-loaded cells and lactate transport activity may be determined as described for Assay 1.

Sequence of MCT1 (P53985 whole entry): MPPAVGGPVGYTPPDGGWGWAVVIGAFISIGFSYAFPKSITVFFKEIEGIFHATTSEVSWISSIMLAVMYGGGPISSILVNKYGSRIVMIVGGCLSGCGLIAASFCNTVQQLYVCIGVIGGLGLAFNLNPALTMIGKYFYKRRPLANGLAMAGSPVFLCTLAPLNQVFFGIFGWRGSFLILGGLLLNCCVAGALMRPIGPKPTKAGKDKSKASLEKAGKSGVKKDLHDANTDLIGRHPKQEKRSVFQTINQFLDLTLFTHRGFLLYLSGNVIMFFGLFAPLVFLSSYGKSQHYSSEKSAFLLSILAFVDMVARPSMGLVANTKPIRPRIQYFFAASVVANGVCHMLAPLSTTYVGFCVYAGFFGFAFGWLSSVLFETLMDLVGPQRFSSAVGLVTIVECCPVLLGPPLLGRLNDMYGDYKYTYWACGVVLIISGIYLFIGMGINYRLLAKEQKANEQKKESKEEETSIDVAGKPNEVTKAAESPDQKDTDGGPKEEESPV
Sequence of MCT1 (P35613 140-385 partner): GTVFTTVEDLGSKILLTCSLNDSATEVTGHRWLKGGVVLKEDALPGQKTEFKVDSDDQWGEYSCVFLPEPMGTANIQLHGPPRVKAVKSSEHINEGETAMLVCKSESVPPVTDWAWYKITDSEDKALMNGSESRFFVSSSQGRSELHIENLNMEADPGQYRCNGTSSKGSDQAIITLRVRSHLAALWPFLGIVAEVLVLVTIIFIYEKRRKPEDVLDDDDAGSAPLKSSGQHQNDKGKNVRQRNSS
T1 sequence (O15427 whole entry, looked up): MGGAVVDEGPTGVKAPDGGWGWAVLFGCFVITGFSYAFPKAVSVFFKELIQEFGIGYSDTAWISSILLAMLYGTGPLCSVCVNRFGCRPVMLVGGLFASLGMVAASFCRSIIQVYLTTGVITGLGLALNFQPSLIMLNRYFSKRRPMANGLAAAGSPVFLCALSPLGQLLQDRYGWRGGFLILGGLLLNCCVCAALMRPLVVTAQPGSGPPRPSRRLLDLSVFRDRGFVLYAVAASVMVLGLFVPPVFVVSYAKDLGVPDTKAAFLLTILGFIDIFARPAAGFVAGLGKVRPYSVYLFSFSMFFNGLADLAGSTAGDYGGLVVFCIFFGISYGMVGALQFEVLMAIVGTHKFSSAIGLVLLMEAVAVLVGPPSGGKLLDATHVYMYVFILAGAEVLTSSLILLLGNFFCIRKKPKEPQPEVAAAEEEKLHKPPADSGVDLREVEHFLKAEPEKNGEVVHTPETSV
T1 sequence (P35613 whole entry partner, looked up): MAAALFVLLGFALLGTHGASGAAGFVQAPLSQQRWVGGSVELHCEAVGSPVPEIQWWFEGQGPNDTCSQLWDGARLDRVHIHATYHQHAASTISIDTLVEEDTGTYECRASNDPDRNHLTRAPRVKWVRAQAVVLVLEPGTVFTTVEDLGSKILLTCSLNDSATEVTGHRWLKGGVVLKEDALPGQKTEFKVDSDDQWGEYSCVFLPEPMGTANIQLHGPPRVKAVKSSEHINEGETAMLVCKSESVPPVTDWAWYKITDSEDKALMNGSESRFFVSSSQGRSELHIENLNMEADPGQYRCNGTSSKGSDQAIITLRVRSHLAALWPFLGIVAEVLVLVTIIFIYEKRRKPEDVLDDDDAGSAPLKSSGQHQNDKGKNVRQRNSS

With `COc1cccc(-c2cc(COC(C)(C)C(=O)O)nn2Cc2ccccc2Cl)c1` [Example 14, 2-[[1-[(2-Chlorophenyl)methyl]-5-(3-methoxyphenyl)pyrazol-3-yl]methoxy]-2-methyl-propanoic acid], the IC50 (as a rule, the concentration needed to halve the response being measured) against MCT4 [1] is 30 nM; on MCT4 [4], 26 nM; on MCT1 (Table 2), more than 100000 nM; at MCT1 (Table 3) it was more than 100000 nM; on MCT4 [5], 44 nM. Further, the “Human microsome % 60 min” value in data set [2] amounted to 82%. Besides, the “Mouse microsome % 60 min” value in data set [3] came to 95%.
Consider `CCC(C)(OCc1cc(-c2cccc(OC)c2)n(Cc2ccccc2Cl)n1)C(=O)O` (centres unmarked) [Example 68, 2-([1-[(2-Chlorophenyl)methyl]-5-(3-methoxyphenyl)-1H-pyrazol-3-yl]methoxy)-2-methylbutanoic Acid], for which the IC50 at MCT4 [1] worked out at 9.1 nM; on MCT1 (Table 3), 26000 nM. Moreover, in data set [2], the “Human microsome % 60 min” value was 95%. Further, the “Mouse microsome % 60 min” value in data set [3] came to 91%.
For `COc1cccc(-c2c(C)c(COC(C)(C)C(=O)O)nn2Cc2ccccc2Cl)c1` [Example 54, 2-({1-[(o-Chlorophenyl)methyl]-5-(m-methoxyphenyl)-4-methyl-1H-pyrazol-3-yl}methoxy)-2-methylpropionic acid], in that order: 37 nM, 27000 nM, 59% and 95%.
Take `COc1ccc(-c2cc(COC(C)(C)C(=O)O)nn2Cc2ccccc2Cl)s1` [Example 64, 2-([1-[(2-Chlorophenyl)methyl]-5-(5-methoxythiophen-2-yl)-1H-pyrazol-3-yl]methoxy)-2-methylpropanoic Acid]: the IC50 against MCT4 [1] stood at 8.3 nM; against MCT1 (Table 3), 45000 nM. The “Human microsome % 60 min” value in data set [2] stood at 82%. The “Mouse microsome % 60 min” value in data set [3] is 84%.
`COc1cccc(-c2cc(COC(C)(C)C(=O)O)nn2Cc2ccccc2N(C)C)c1` [Example 38, 2-[[1-[[2-(Dimethylamino)phenyl]methyl]-5-(3-methoxyphenyl)pyrazol-3-yl]methoxy]-2-methyl-propanoic acid]: the results for the IC50 at MCT4 [1] and against MCT1 (Table 3) were 48 nM and 60000 nM, respectively. Further, the “Human microsome % 60 min” value in data set [2] was determined as 56%. In addition, the “Mouse microsome % 60 min” value in data set [3] is 61%.
Regarding `COc1cc(-c2cc(COC(C)(C)C(=O)O)nn2Cc2ccccc2Cl)cs1` [Example 66, 2-([1-[(2-chlorophenyl)methyl]-5-(5-methoxythiophen-3-yl)-1H-pyrazol-3-yl]methoxy)-2-methylpropanoic Acid], the IC50 on MCT4 [1] turned out to be 7.8 nM; against MCT1 (Table 3) it was 45000 nM. Besides, in data set [2], the “Human microsome % 60 min” value was found to be 73%. Also, in data set [3], the “Mouse microsome % 60 min” value was 83%.
`COc1cccc(-c2cc(COC(C)(C)C(=O)O)nn2-c2ccccc2Cl)c1` [Example 57, 2-[[1-(2-chlorophenyl)-5-(3-methoxyphenyl)-1H-pyrazol-3-yl]methoxy]-2-methylpropanoic acid]: the “Human microsome % 60 min” value in data set [2] turned out to be 80%. Besides, in data set [3], the “Mouse microsome % 60 min” value is 100%. In addition, on MCT1 (Table 3), the IC50 was more than 133000 nM.
Take `COc1cccc(-c2cc(COC(C)(C)C(=O)O)nn2Cc2ccccc2OC)c1` [Example 36, 2-[[5-(3-Methoxyphenyl)-1-[(2-methoxyphenyl)methyl]pyrazol-3-yl]methoxy]-2-methyl-propanoic acid]: the IC50 on MCT4 [1] turned out to be 82 nM; against MCT1 (Table 3), 50000 nM. The “Human microsome % 60 min” value in data set [2] amounted to 85%. Also, the “Mouse microsome % 60 min” value in data set [3] stood at 99%.
For `COc1csc(-c2cc(COC(C)(C)C(=O)O)nn2Cc2ccccc2Cl)c1` [Example 65, 2-([1-[(2-Chlorophenyl)methyl]-5-(4-methoxythiophen-2-yl)-1H-pyrazol-3-yl]methoxy)-2-methylpropanoic Acid], in that order: 8 nM, 13000 nM, 78% and 92%.
For `CC(C)Oc1cccc(-c2cc(COC(C)(C)C(=O)O)nn2Cc2ccccc2Cl)c1` [Example 35, 2-[[1-[(2-Chlorophenyl)methyl]-5-(3-isopropoxyphenyl)pyrazol-3-yl]methoxy]-2-methyl-propanoic acid] the same measures were 5.2 nM, 59000 nM, 67% and 31%.
For `CC(C)(OCc1cc(-c2cccc(OC3CC3)c2)n(Cc2ccccc2Cl)n1)C(=O)O` [Example 39, 2-[[1-[(2-Chlorophenyl)methyl]-5-[3-(cyclopropoxy)phenyl]pyrazol-3-yl]methoxy]-2-methyl-propanoic acid], in that order: 5.4 nM, 10000 nM, 89% and 88%.
Turning to `CC(C)COc1cccc(-c2cc(COC(C)(C)C(=O)O)nn2Cc2ccccc2Cl)c1` [Example 27, 2-[[1-[(2-Chlorophenyl)methyl]-5-(3-isobutoxyphenyl)pyrazol-3-yl]methoxy]-2-methyl-propanoic acid], the IC50 against MCT4 [1] amounted to 1 nM; on MCT1 (Table 3) it was 5600 nM. Moreover, the “Human microsome % 60 min” value in data set [2] is reported as 43%. Further, the “Mouse microsome % 60 min” value in data set [3] is on record as 50%.
